Patent publication US8871753B2, “Macrocyclic compounds and their use as kinase inhibitors” (Incyte Corporation, priority 2008, dated 2014)
Structures can show the parent of a compound that is named as a salt. Where two headings read alike, the source gives them in different places.

Key:
Type in all cases: biochemical
[1] = biological target: T1, human JAK1 (a.a. 837-1142) (Homo sapiens, UniProt P23458); test: In vitro JAK kinase assay (HTRF, phosphorylation of a biotinylated peptide), JAK1; conditions: read-out: JAK1 IC50
T1 construct: human JAK1 (a.a. 837-1142); His tag (N); made in house; host or cells: insect cells (baculovirus)
T1 sequence (P23458 849-1154): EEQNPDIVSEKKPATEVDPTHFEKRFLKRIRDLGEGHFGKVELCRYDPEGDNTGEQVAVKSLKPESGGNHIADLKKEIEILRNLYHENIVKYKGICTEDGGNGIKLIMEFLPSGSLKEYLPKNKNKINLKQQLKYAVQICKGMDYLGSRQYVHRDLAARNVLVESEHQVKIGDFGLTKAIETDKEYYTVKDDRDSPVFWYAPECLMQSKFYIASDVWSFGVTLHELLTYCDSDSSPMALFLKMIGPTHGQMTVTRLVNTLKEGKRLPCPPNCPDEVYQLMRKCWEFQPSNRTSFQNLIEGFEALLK
How it was run: (§1)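 Phosphorylation of a biotinylated peptide by the JAK kinase domain, detected by HTRF with Eu-Py20 and SA-APC. ATP was 90 μM for JAK1, 30 μM for JAK2 and 3 μM for JAK3. Reactions ran 1 h at room temperature and were stopped with EDTA, followed by 40 min antibody binding.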

[2] = biological target: T2, human JAK2 (a.a. 828-1132) (Homo sapiens, UniProt O60674); test: In vitro JAK kinase assay (HTRF, phosphorylation of a biotinylated peptide), JAK2
T2 construct: JAK2 (a.a. 828-1132); His tag (N); made in house; host or cells: insect cells (baculovirus)
T2 sequence (O60674 828-1132): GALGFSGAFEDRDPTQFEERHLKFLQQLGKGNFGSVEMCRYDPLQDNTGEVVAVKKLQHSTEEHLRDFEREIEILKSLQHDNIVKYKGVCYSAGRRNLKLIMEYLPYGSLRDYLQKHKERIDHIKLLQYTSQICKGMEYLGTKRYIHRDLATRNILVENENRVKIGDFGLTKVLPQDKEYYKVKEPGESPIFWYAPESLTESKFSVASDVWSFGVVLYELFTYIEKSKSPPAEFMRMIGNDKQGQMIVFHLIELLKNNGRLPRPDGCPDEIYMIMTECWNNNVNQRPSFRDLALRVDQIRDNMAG
How it was run: as §1

[3] = biological target: T3, Recombinant Human Anaplastic Lymphoma Kinase (Homo sapiens, UniProt Q9UM73); test: ALK HTRF kinase assay
T3 construct: purchased Invitrogen, Carlsbad, Calif
T3 sequence (Q9UM73 19-1620): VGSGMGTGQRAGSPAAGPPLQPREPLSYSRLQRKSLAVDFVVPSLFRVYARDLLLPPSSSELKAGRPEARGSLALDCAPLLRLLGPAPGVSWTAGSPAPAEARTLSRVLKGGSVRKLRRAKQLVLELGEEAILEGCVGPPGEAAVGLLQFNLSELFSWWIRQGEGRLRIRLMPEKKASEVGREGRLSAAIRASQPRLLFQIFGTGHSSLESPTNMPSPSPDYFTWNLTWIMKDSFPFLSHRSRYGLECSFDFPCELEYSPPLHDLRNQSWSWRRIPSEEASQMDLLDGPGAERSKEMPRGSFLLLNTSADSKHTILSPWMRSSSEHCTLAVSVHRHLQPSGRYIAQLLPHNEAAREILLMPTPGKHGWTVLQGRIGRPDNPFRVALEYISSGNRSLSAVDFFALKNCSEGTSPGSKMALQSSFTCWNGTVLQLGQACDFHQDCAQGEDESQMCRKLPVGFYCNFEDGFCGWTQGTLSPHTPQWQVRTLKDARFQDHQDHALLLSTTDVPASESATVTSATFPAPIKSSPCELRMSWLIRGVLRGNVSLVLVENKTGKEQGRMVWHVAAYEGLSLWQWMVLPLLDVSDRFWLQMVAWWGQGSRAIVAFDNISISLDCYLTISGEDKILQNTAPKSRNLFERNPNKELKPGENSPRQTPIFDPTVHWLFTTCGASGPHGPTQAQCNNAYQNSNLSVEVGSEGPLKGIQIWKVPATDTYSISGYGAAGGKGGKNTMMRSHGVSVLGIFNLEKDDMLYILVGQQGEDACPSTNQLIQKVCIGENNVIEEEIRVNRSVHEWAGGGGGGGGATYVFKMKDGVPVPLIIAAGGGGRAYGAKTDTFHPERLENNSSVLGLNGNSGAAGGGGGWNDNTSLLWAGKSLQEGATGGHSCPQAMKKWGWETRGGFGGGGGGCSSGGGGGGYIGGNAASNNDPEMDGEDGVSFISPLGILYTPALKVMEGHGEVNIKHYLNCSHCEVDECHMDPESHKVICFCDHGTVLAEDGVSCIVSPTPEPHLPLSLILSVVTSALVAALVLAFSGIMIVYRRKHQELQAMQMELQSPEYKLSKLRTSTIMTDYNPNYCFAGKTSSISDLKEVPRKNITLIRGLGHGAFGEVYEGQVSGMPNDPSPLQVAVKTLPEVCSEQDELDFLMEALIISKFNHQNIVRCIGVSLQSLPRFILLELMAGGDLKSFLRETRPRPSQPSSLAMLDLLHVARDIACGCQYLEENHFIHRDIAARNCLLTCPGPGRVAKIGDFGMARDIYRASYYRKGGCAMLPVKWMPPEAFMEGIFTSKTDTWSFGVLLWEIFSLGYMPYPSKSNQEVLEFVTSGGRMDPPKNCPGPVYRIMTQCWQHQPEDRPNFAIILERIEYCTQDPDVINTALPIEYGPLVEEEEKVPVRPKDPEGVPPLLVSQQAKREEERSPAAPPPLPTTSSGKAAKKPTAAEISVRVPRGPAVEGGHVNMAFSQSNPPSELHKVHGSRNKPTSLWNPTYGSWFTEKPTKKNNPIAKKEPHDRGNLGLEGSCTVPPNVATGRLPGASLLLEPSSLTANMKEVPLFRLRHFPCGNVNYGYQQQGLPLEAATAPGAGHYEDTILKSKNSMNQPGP
From the text: Materials: Recombinant Human Anaplastic Lymphoma Kinase was purchased from Invitrogen, Carlsbad, Calif. Peptide substrate (Biotin-[…]-amide) was custom synthesized at EZBiolab, Westfield, Ind. Streptavidin conjugated SureLight-Allophycocyania and LANCE Eu-W1024 labeled anti-phosphotyrosine antibody were from Perkin-Elmer, Boston, Mass. Microplates were from Corning Inc., Acton, Mass. All other reagents were from Sigma, St. Louis, Mo.
Plates were read in Fusion α-FP instrument (Perkin-Elmer). […] Signal=Bottom+(Top−Bottom)/(1+10^((Log(IC50)−Log [I])*Hill Slope) Bottom and Top refer to the post and pre-transition baselines, respectively.

[4] = biological target: TYK2 (Homo sapiens, UniProt P29597); test: TYK2 kinase inhibition (Table A1); conditions: Table B1
Chain of TYK2 (P29597 whole entry): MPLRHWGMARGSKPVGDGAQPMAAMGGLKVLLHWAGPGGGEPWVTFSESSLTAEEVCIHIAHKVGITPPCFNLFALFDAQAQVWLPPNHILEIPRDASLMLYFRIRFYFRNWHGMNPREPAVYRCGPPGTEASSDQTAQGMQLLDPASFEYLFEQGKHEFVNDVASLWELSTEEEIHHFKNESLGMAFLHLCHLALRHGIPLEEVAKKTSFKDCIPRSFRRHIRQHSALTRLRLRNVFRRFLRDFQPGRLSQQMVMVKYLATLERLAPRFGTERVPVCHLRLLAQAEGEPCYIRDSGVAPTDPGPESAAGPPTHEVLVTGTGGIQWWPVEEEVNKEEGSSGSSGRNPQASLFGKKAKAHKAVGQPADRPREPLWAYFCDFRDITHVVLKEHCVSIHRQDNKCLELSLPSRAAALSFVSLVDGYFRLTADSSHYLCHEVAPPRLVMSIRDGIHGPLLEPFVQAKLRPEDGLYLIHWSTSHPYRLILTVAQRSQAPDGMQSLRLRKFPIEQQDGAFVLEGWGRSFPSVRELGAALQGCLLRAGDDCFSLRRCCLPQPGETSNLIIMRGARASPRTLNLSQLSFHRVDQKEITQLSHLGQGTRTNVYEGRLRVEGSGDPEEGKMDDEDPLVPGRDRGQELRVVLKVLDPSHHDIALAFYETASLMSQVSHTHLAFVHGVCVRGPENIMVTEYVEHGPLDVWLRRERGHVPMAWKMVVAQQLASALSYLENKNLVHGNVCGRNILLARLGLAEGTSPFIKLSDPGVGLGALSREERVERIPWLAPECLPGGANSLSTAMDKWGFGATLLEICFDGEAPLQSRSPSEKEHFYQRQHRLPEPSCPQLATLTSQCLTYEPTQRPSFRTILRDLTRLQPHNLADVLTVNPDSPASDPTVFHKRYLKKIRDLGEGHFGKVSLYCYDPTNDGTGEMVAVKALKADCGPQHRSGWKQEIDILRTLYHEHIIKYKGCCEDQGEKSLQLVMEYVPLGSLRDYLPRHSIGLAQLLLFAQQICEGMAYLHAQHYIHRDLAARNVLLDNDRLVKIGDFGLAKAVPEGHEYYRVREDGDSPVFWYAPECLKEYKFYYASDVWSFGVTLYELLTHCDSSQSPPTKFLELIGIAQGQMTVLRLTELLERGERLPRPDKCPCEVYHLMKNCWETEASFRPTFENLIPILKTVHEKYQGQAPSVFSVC

[5] = biological target: T4, human JAK3 (a.a. 781-1124) (Homo sapiens, UniProt P52333); test: In vitro JAK kinase assay (HTRF, phosphorylation of a biotinylated peptide), JAK3
T4 construct: JAK3 (a.a. 781-1124); His tag (N); made in house; host or cells: insect cells (baculovirus)
T4 sequence (P52333 781-1124): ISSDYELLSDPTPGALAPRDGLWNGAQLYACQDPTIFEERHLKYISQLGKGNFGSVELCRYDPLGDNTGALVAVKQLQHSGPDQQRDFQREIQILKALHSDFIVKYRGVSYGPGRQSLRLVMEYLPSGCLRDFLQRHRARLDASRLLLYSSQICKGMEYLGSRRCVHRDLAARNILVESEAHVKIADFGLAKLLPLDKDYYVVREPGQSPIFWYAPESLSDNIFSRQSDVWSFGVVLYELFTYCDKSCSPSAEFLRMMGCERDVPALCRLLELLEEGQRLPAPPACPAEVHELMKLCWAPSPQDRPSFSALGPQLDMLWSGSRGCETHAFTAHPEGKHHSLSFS
How it was run: as §1

[6] = method AA1 (90 μM ATP) or AA2 (1000 μM ATP), not stated per value
[7] = method AA1 (30 μM ATP) or AA2 (1000 μM ATP), not stated per value
[8] = compound at 500 nM or 1 mM, 90 μM ATP
[9] = compound at a concentration of 500 nM or 1 mM (not specified), cells shown as percentage
[10] = Table B1, cells without percent sign

IC50 [1, 6] [nM] | IC50 [2, 7] [nM] | ALK % of inhibition at a concentration of 500 nM or 1 mM [3, 8] [%] | IC50 ([1]; Table B1) [nM] | IC50 [4] [nM] | IC50 ([2]; Table B1) [nM] | ALK % of inhibition at a concentration of 500 nM or 1 mM [3, 9] [%] | Compound | also measured
5 | 271 | 19 |  |  |  |  | Cc1occc1C(=O)N1CCC(CC(=O)Nc2ccc3cc2CCc2cncc(c2)Nc2ncc(Cl)c(n2)N3)CC1 [Example A160, N-[6-Chloro-2,4,8,18,22-pentaazatetracyclo[14.3.1.1(3,7).1(9,13)]docosa-1(20),3(22),4,6,9(21),10,12,16,18-nonaen-12-yl]-2-[1-(2-methyl-3-furoyl)piperidin-4-yl]acetamide bis(trifluoroacetate)] | 
15 | 300 | 27 |  |  |  |  | Cc1ccoc1C(=O)N1CCC(CC(=O)Nc2ccc3cc2CCc2cncc(c2)Nc2ncc(Cl)c(n2)N3)CC1 [Example A161, N-[6-Chloro-2,4,8,18,22-pentaazatetracyclo[14.3.1.1(3,7).1(9,13)]docosa-1(20),3(22),4,6,9(21),10,12,16,18-nonaen-12-yl]-2-[1-(3-methyl-2-furoyl)piperidin-4-yl]acetamide bis(trifluoroacetate)] | 
8.2 | 289 | 33 |  |  |  |  | Cc1ccc(C(=O)N2CCC(CC(=O)Nc3ccc4cc3CCc3cncc(c3)Nc3ncc(Cl)c(n3)N4)CC2)o1 [Example A162, N-[6-Chloro-2,4,8,18,22-pentaazatetracyclo[14.3.1.1(3,7).1(9,13)]docosa-1(20),3(22),4,6,9(21),10,12,16,18-nonaen-12-yl]-2-[1-(5-methyl-2-furoyl)piperidin-4-yl]acetamide bis(trifluoroacetate)] | 
5.3 | 175 | 14 |  |  |  |  | Cn1ccnc1C(=O)N1CCC(CC(=O)Nc2ccc3cc2CCc2cncc(c2)Nc2ncc(Cl)c(n2)N3)CC1 [Example A164, N-[6-Chloro-2,4,8,18,22-pentaazatetracyclo[14.3.1.1(3,7).1(9,13)]docosa-1(20),3(22),4,6,9(21),10,12,16,18-nonaen-12-yl]-2-{1-[(1-methyl-1H-imidazol-2-yl)carbonyl]piperidin-4-yl}acetamide bis(trifluoroacetate)] | 
64 | > 1000 | 23 |  |  |  |  | Cc1nocc1C(=O)N1CCC(CC(=O)Nc2ccc3cc2CCc2cncc(c2)Nc2ncc(Cl)c(n2)N3)CC1 [Example A165, N-[6-Chloro-2,4,8,18,22-pentaazatetracyclo[14.3.1.1(3,7).1(9,13)]docosa-1(20),3(22),4,6,9(21),10,12,16,18-nonaen-12-yl]-2-{1-[(3-methylisoxazol-4-yl)carbonyl]piperidin-4-yl}acetamide bis(trifluoroacetate)] | 
6.5 | 300 | 32 |  |  |  |  | Cc1nonc1C(=O)N1CCC(CC(=O)Nc2ccc3cc2CCc2cncc(c2)Nc2ncc(Cl)c(n2)N3)CC1 [Example A166, N-[6-Chloro-2,4,8,18,22-pentaazatetracyclo[14.3.1.1(3,7).1(9,13)]docosa-1(20),3(22),4,6,9(21),10,12,16,18-nonaen-12-yl]-2-{1-[(4-methyl-1,2,5-oxadiazol-3-yl)carbonyl]piperidin-4-yl}acetamide bis(trifluoroacetate)] | 
0.6 | 59 | 33 |  |  |  |  | Nc1nonc1C(=O)N1CCC(CC(=O)Nc2ccc3cc2CCc2cncc(c2)Nc2ncc(Cl)c(n2)N3)CC1 [Example A167, 2-{1-[(4-Amino-1,2,5-oxadiazol-3-yl)carbonyl]piperidin-4-yl}-N-[6-chloro-2,4,8,18,22-pentaazatetracyclo[14.3.1.1(3,7).1(9,13)]docosa-1(20),3(22),4,6,9(21),10,12,16,18-nonaen-12-yl]acetamide tris(trifluoroacetate)] | 
 |  |  | 8 | 8.1 | 8.4 | 4.6 | O=S(=O)(Nc1ccc2cc1CCc1cccc(c1)Nc1ncc(Cl)c(n1)N2)c1ccccc1C(F)(F)F [Example B164, N-[6-Chloro-2,4,8,22-tetraazatetracyclo[14.3.1.1(3,7).1(9,13)]docosa-1(20), 3(22),4,6,9(21),10,12,16,18-nonaen-12-yl]-2-(trifluoromethyl)benzenesulfonamide trifluoroacetate] | 
 |  |  | 91 | 450 | 97 | 3.5 | CC(C)(C)OC(=O)N1CCC(NC(=O)Nc2ccc3cc2CCc2cccc(c2)Nc2ncc(Cl)c(n2)N3)CC1 [Example B180, tert-Butyl 4-[({[6-chloro-2,4,8,22-tetraazatetracyclo[14.3.1.1(3,7).1(9,13)]docosa-1(20),3(22),4,6,9(21),10,12,16,18-nonaen-12-yl]amino}carbonyl)amino]piperidine-1-carboxylate] | 
 |  |  | 4 | 9.6 | 8.2 | 21 | CC(=O)NCCNC(=O)Nc1ccc2cc1CCc1cccc(c1)Nc1ncc(Cl)c(n1)N2 [Example B186, N-{2-[({[6-Chloro-2,4,8,22-tetraazatetracyclo[14.3.1.1(3,7).1(9,13)]docosa-1(20),3(22),4,6,9(21),10,12,16,18-nonaen-12-yl]amino}carbonyl)amino]ethyl}acetamide trifluoroacetate] | 
 |  |  | 55 | 950 | 47 |  | Clc1cnc2nc1Nc1cc(cc(CN3CCN(Cc4ccc(Oc5ncccn5)cc4)CC3)c1)CCc1cccc(c1)N2 [Example B193, 6-Chloro-11-({4-[4-(pyrimidin-2-yloxy)benzyl]piperazin-1-yl}methyl)-2,4,8,22-tetraazatetracyclo[14.3.1.1(3,7).1(9,13)]docosa-1(20),3(22),4,6,9(21),10,12,16,18-nonaene tris(trifluoroacetate)] | IC50 [3, 10]: > 1000 nM
 |  |  | 176 | 700 | 125 |  | Cn1ccc(C(=O)Nc2cc3cc(c2)Nc2nc(ncc2Cl)Nc2cccc(c2)CC3)n1 [Example B207, N-[6-Chloro-2,4,8,22-tetraazatetracyclo[14.3.1.1(3,7).1(9,13)]docosa-1(20),3(22),4,6,9(21),10,12,16,18-nonaen-11-yl]-1-methyl-1H-pyrazole-3-carboxamide trifluoroacetate] | IC50 [3, 10]: > 10000 nM
 |  |  | 164 | 900 | 25 |  | Clc1nccc(N2CCN(Cc3cc4cc(c3)Nc3nc(ncc3Cl)Nc3cccc(c3)CC4)CC2)n1 [Example B218, 6-Chloro-11-{[4-(2-chloropyrimidin-4-yl)piperazin-1-yl]methyl}-2,4,8,22-tetraazatetracyclo[14.3.1.1(3,7).1(9,13)]docosa-1(20),3(22),4,6,9(21),10,12,16,18-nonaene tris(trifluoroacetate)] | IC50 [3, 10]: > 10000 nM
 |  |  | 17 | 25 | 601 | 22 | Cc1oncc1C(=O)N1CC[C@H](NC(=O)Nc2ccc3cc2CCc2cncc(c2)Nc2ncc(Cl)c(n2)N3)C1 [Example B266, N-[6-Chloro-2,4,8,18,22-pentaazatetracyclo[14.3.1.1(3,7).1(9,13)]docosa-1(20),3(22),4,6,9(21),10,12,16,18-nonaen-12-yl]-N′-{(3S)-1-[(5-methylisoxazol-4-yl)carbonyl]pyrrolidin-3-yl}urea bis(trifluoroacetate)] | 
 |  |  | > 1000 |  | > 1000 | 0 | NC1CCN(c2ccnc(Nc3ccc4cc3CCc3cncc(c3)Nc3ncc(Cl)c(n3)N4)n2)CC1 [Example B282, N-[4-(4-Aminopiperidin-1-yl)pyrimidin-2-yl]-6-chloro-2,4,8,18,22-pentaazatetracyclo[14.3.1.1(3,7).1(9,13)]docosa-1(20),3(22),4,6,9(21),10,12,16,18-nonaen-12-amine tetrakis(trifluoroacetate)] | 
 |  |  |  |  |  |  | O=S1(=O)Cc2cccc(c2)Nc2nc(ncc2Cl)Nc2cccc(c2)N1 [Example C8, 6-Chloro-15-thia-2,4,8,16,23-pentaazatetracyclo[15.3.1.1(3,7).1(9,13)]tricosa-1(21),3(23),4,6,9(22),10,12,17,19-nonaene 15,15-dioxide trifluoroacetate] | IC50 [5]: 242 nM; IC50 [2]: 66 nM; IC50 [3]: > 1000 nM
